Measured values reported in patent US7521527B2 (Societe de Conseils de Recherches et d'Applications …, priority 2003, dated 2009).
Converted amounts (≈) assume the structure as drawn. Where a SMILES comes first, the peptide text is derived from it. [ ]: non-standard residue; d: D form. Aib = CC(C)(N)C(=O)O

How the values were obtained:
[1] = Aqueous solubility of compound vs zinc concentration; format: physicochemical; conditions: aqueous saline, pH 7.0, room temperature
Description: Compounds that may advantageously be used to practice the invention can be and were tested to determine their solubility in pH 7 water at different zinc concentrations using the following procedure.
A stock zinc solution was prepared by dissolving ZnCl2 in de-ionized water to a concentration of 100 mg/ml and adjusting the pH to 2.7 using HCl. Solutions having various ZnCl2 concentrations (“Zn Test Solutions”) were prepared by making appropriate dilutions of the stock solution.
1 mg of the compound of Example 1 was dissolved in 250 μl of each Zn Test Solution to yield a solution having 4 mg/ml of the Example 1 compound. […] The precipitation solution was centrifuged and the mother liquor analyzed using HPLC. The UV absorption area of test compound peak was measured and the concentration of the test compound in the mother liquor was determined via comparison to a calibration curve.
As a representative example of a compound that may be used to practice the invention, the compound of Example 1 was tested in the immediately foregoing assay and the following results were obtained (aqueous saline, pH 7.0, room temperature): […]

[2] = system: adult male Sprague-Dawley rats; assay: In vivo assay G.1/G.2: insulin secretion after iv glucose challenge following sc injection; design: species or system rat; conditions: clear solution pH 4.0 with zinc (Preparation D), sc 75 μg/kg, fasted rats, iv glucose 1 g/kg at 0.25-24 h
Description: The day prior to the experiment, adult male Sprague-Dawley rats (Taconic, Germantown, N.Y.) that weighed approximately 300-350g were implanted with a right atrial jugular cannula under chlorohydrate anesthetic. The rats were then fasted for 18 hours prior to the injection of the appropriate test composition or vehicle control at time 0. The rats continued to be fasted throughout the entire experiment.
At time zero the rats were injected subcutaneously (sc) either with (a) the compound of Example 1 (Aib^8,^35, Arg^26,^34, Phe^31)hGLP-1(7-36)NH2) at pH 4.0 as a clear solution (i.e., the solution of Preparation D.), or (b) the compound of Example 1 at pH 7.0 as a suspension or gel (i.e., the suspension or gel of Preparation E.). […] At the appropriate time after the sc injections a 500 μl blood sample was withdrawn via the intravenous (iv) cannula and the rats were given an iv glucose challenge to test for the presence of enhanced insulin secretion. The times of the glucose challenge were 0.25, 1, 6, 12 and 24 hours post-compound injection. After the initial blood sample was withdrawn glucose (1 g/kg) was injected iv and flushed in with 500 μl heparinized saline (10U/mL). […] The amount of insulin in each sample was determined using a rat insulin enzyme-linked immunosorbant assay (ELISA) kit (American Laboratory Products Co., Windham, N.H.). […]

Row | solubility ([1]; pH 7, ZnCl2 concentration 0 μg/mL) [µg/mL] | solubility ([1]; pH 7, ZnCl2 concentration 80 μg/mL) [µg/mL] | solubility ([1]; pH 7, ZnCl2 concentration 500 μg/mL) [µg/mL] | solubility ([1]; pH 7, ZnCl2 concentration 1000 μg/mL) [µg/mL] | solubility ([1]; pH 7, ZnCl2 concentration 1500 μg/mL) [µg/mL] | solubility ([1]; pH 7, ZnCl2 concentration 2500 μg/mL) [µg/mL] | Compound | duration of sustained insulin-enhancing activity inducible by glucose injection [2] [h]
1 | 53.9 (≈ 16.1 µM) | 5.9 (≈ 1.76 µM) | 5.6 (≈ 1.67 µM) | 9.7 (≈ 2.89 µM) | 9.7 (≈ 2.89 µM) | 11 (≈ 3.28 µM) | CC[C@H](C)[C@H](NC(=O)[C@H](Cc1ccccc1)NC(=O)[C@H](CCC(=O)O)NC(=O)[C@H](CCCNC(=N)N)NC(=O)[C@H](C)NC(=O)[C@H](C)NC(=O)[C@H](CCC(N)=O)NC(=O)CNC(=O)[C@H](CCC(=O)O)NC(=O)[C@H](CC(C)C)NC(=O)[C@H](Cc1ccc(O)cc1)NC(=O)[C@H](CO)NC(=O)[C@H](CO)NC(=O)[C@@H](NC(=O)[C@H](CC(=O)O)NC(=O)[C@H](CO)NC(=O)[C@@H](NC(=O)[C@H](Cc1ccccc1)NC(=O)[C@@H](NC(=O)CNC(=O)[C@H](CCC(=O)O)NC(=O)C(C)(C)NC(=O)[C@@H](N)Cc1c[nH]cn1)[C@@H](C)O)[C@@H](C)O)C(C)C)C(=O)N[C@@H](C)C(=O)N[C@@H](Cc1ccccc1)C(=O)N[C@@H](CC(C)C)C(=O)N[C@H](C(=O)N[C@@H](CCCNC(=N)N)C(=O)NC(C)(C)C(=O)N[C@@H](CCCNC(=N)N)C(N)=O)C(C)C [Example 1, (Aib^8,^35, Arg^26,^34, Phe^31)hGLP-1(7-36)NH2] (H-H[Aib]EGTFTSDVSSYLEGQAAREFIAFLVR[Aib]R-NH2) | –
2 | – | – | – | – | – | – | (Aib^8,35)hGLP1(7-36)NH2 | 24
